US20230310440A1, “RESPIRATORY STIMULANT NASAL FORMULATIONS” (Enalare Therapeutics Inc., priority 2022, published 2023)

Assays:
Assay type in all cases: physicochemical
[1] = Stability as a function of pH, narrow range (pH 2-3.6, ~10 mM citric acid and glycine buffers, 1 mg/mL); details: Target pH 2.0; 40° C. Storage 4 wk; listed as Cmp. A
Protocol: Accordingly, the stability of the compound was evaluated in the pH range 2-3.6.
Methodology: Buffer solutions containing ˜10 mM each of citric acid and glycine in the pH range 2-3.6 were prepared by titrating 250 mL of a single stock containing both buffer agents with 1N NaOH/1N HCl and removing 50 mL aliquots at predetermined pH values. Solutions at 1 mg/mL were prepared in the buffers by dissolving ˜25 mg of compound in ˜23 mL of a given buffer, adjusting the pH to the target and making up the volume to 25.0 mL in a volumetric flask.
Each of the buffered solutions was filtered through a […] polyether sulfone syringe filter into a volumetric flask previously rinsed with 70% ethanol and dried in a laminar flow hood. Following filtration, each buffered solution was split into 9 aliquots in 5 mL serum vials previously rinsed with 70% ethanol and dried in a laminar flow hood. Filtration and preparation of aliquots were performed in a laminar flow hood. Of the nine aliquots, three aliquots were stored at each 40° C. and 60° C., two aliquots were stored at 25° C. and one aliquot was submitted for T0 testing. Samples were evaluated for pH, assay and related substances at TO and, following 1 week, 2 weeks and 4 weeks of storage at 40° C. and 60° C. Samples stored at 25° C. served as controls to be analyzed if necessary. […]

[2] = Drug substance stability (API in closed Type I glass vials at 40° C. and 60° C.)
Protocol: Methodology: Approximately 100 mg of the API (Lot 009M9B058) were stored at each of 40° C. and 60° C. in closed Type I glass vials. Samples were analyzed for appearance and percent purity at T0 and after 1 week, 2 weeks and 4 weeks of storage.
Visually, there were no signs of degradation (i.e. discoloration etc.).

[3] = pH solubility study (100 mM citric acid, titrated with NaOH, shaken overnight at room temperature, filtered, HPLC); details: for Cmp. A.H2SO4 Concentration: no excess solid, not saturation solubility
Protocol: A pH solubility study was performed to assess the feasibility of formulating a compound having Formula (I) as a simple buffered solution at a reasonable pH for a nasal formulation.
Methodology: A compound having Formula (I) and H2SO4 solution of concentration ˜107 mg/mL in 100 mM citric acid at pH 2.5 was prepared. About 150 μL aliquots of this solution were transferred into 6 separate glass HPLC vials. All the samples, including the solution at pH 2.5, were shaken overnight at room temperature using a gyratory shaker. After shaking, the samples were evaluated visually for the presence of precipitate and were then spin filtered through 0.45 μm syringe tip filters (4 mm diameter) at 3000 rpm for 20 min. The final pH values of the filtrates were measured. The filtrates were then diluted appropriately and analyzed for compound having Formula (I). H2SO4 concentration using the HPLC assay.
Results: The pH values of the samples prior to and after shaking overnight, appearance as well as concentrations of samples are shown in Table 12.

Row | SMILES | Assay [1] | Stability of the API on storage (in words) ([2]; 4 weeks, even at 60° C.) | Purity (%) ([2]; 40° C., T = 1 week) | Purity (%) ([2]; 40° C., T = 2 week) | Purity (%) ([2]; 40° C., T = 4 week) | Purity (%) ([2]; 60° C., T = 1 week) | Purity (%) ([2]; 60° C., T = 2 week) | Purity (%) ([2]; 60° C., T = 4 week) | Purity (%) ([2]; T = 0) | Final pH after Shaking and Filtration ([3]; Target pH 2.5, Initial pH 2.51) | Cmp. A.H2SO4 Concentration ([3]; Target pH 2.5, Initial pH 2.51) | Final pH after Shaking and Filtration ([3]; Target pH 3.0, Initial pH 3.05) | Cmp. A.H2SO4 Concentration ([3]; Target pH 3.0, Initial pH 3.05) | Final pH after Shaking and Filtration ([3]; Target pH 3.5, Initial pH 3.51) | Cmp. A.H2SO4 Concentration ([3]; Target pH 3.5, Initial pH 3.51) | Final pH after Shaking and Filtration ([3]; Target pH 4.0, Initial pH 4.00) | Final pH after Shaking and Filtration ([3]; Target pH 4.5, Initial pH 4.55) | Final pH after Shaking and Filtration ([3]; Target pH 5.0, Initial pH 4.93) | Final pH after Shaking and Filtration ([3]; Target pH 5.5, Initial pH 5.63)
1 | CCCNc1nc(NCCC)nc(N(C)OC)n1 [Compound A, N-(4,6-Bis-n-propylamino-[1,3,5]triazin-2-yl)-O,N-dimethyl-hydroxylamine] | 0956 | – | – | – | – | – | – | – | – | – | – | – | – | – | – | – | – | – | –
2 | CCCNc1nc(NCCC)nc(N(C)OC)n1 [Cmp. A.H2SO4, N-(4,6-Bis-n-propylamino-[1,3,5]triazin-2-yl)-O,N-dimethyl-hydroxylamine] | – | quite stable | 99.92% | 99.90% | 100.00% | 99.76% | 100.00% | 100.00% | 100.00% | 2.42 | 104.1 mg/mL | 3.00 | 99.8 mg/mL | 3.51 | 101.6 mg/mL | 3.79 | 4.37 | 4.52 | 5.02
